In the case of `COC1=Nc2cc(OC)c(F)cc2C(c2ccccc2Cl)=NC1C(C)=O` (centres undefined), the melting point fell in the range of 172 to 174 °C.
Then `O=C(O)C(CC(=O)N1CC2CC=CCC2C1)Cc1ccccc1` (centres undefined), with 128 to 132 °C.
Then `Cn1ncc(C(=O)c2ccc(Cl)cc2Cl)c1OCc1ccc([N+](=O)[O-])cc1`, with 116 to 118 °C; and `CC(=O)c1cccc(C)c1NC(=O)CBr`, with 97 to 100 °C.
The same measure for `O=C(NO)c1ccc(C(=O)Nc2cccc(Nc3nc(-c4cccnc4)cs3)c2)cc1`: 206 °C.
Regarding `Cc1ncc2c(c1OCC(=O)O)COC2c1ccccc1` (centres undefined), the melting point is 220 °C.
Take `CCCCOC(=O)c1ccc2ccc(C)nc2c1OC(=O)C(C)(C)C`: the melting point stood at 52 °C.
The same measure for `CC1Cc2c(N3CCC(NC(=O)OC(C)(C)C)C3)c(F)cc3c(=O)[nH]c(=O)n1c23` (centres undefined): 203 to 205 °C; for `CCCC1c2c(ccc(C(C)=O)c2O)OC1CSc1ccc(C(=O)CCC(=O)O)cc1` (centres undefined): 110 to 112 °C.
In turn, `[N-]=[N+]=NC1(O)CC(n2ccc(N)nc2=O)OC1CO` (centres undefined) returned a melting point of 174 to 176 °C.
In the case of `COc1cc(OC)nc(SC)n1`, the melting point is 50 to 52 °C.
Then `CC(C)(Cl)Cn1ncc(OCc2ccc(I)nc2)c(Cl)c1=O`, with 119 to 123 °C.
The same measure for `Nc1cccc(-c2ccc(CCN3Cc4ccccc4C3)cc2)n1`: 140 to 143 °C.
For the compound `CCn1c2s[nH]c(=O)c2c(=O)c2cc(F)c(F)c(OC(F)F)c21`, the melting point was in the range of 211 to 213 °C.
Compound `COc1ccc2[nH]c(CCCCCCCCCCCCCCO)cc2c1` showed a melting point of 68 to 69 °C.
The same measure for `COc1ccc2c(c1)CC(N(C)CCCNC(=O)Cc1cc(OC)c(OC)cc1[N+](=O)[O-])CC2` (centres undefined): 116 to 118 °C; for `N#Cc1ccc(OCCCn2ccnc2)cc1`: 60 to 61.5 °C; for `CC(C)c1nc(COC(=O)N[C@@H](C)C(=O)N[C@@H](Cc2ccccc2)C[C@H](O)[C@H](Cc2ccccc2)NC(=O)OCc2cncs2)cs1`: 59 to 61 °C.
Regarding `O=Cc1ccc2c(c1I)OCO2`, the melting point lay within 124 to 126 °C.
The same measure for `COc1ccc(C=CC(=O)Nc2ccncc2)c2c1OC1(CCCC1)C2`: 124 to 128 °C; for `CCOP(=O)(OCC)C1(P(=O)(OCC)OCC)CC(C(=O)c2ccccc2[N+](=O)[O-])=NN1`: 111 to 112 °C.
The same measure for `Cc1nccc2[nH]c(=O)c(N)cc12`: 283 to 285 °C; for `CCCC(C)c1nn(-c2ccc(C(F)(F)F)cn2)cc1C=O` (centres undefined): 63 to 64 °C.
The same measure for `CCOC(=O)c1nc(-c2ccc(OC)c(OC)c2)cs1`: 100 to 102 °C; for `CCOC(=O)CN1C(=O)CN2CC(=O)NN=C21`: 188 to 193 °C; for `CCN(CC)CCC1CCCN1CCNC(=O)N1c2ccccc2C(=O)Nc2cccnc21` (centres undefined): 127 to 128 °C.
Regarding `Cc1oc(-c2ccccc2)nc1COc1ccc(Cc2nc(-c3ccccc3)c(CCC(=O)O)o2)cc1`, the melting point was 142 to 143 °C.
Then `CCCCCCCCCC(=O)OC1CCC2(CC(=O)N(CCCCN3CCN(c4nsc5ccccc45)CC3)C(=O)C2)C1` (centres undefined), with 117 to 119 °C; and `Nc1ncnc2c1c(-c1ccc(Oc3ccccc3)cc1)cn2C1CCOCC1`, with 193 to 194 °C; and `O=C(O)CCCCNC(=O)c1ccccc1NC(=O)c1ccccc1O`, with 168 to 170 °C.
The same measure for `CC1(C(=O)c2c[nH]c3ncc(Br)nc23)CCCCCC1`: 198 °C; for `CCCCc1ccc2c(c1)-c1[nH]c(C(=O)OC)cc(=O)c1CS2`: 144 to 146 °C; for `COC(=O)[C@H](C)NC(=O)CCn1cc(C2=C(c3cn(C)c4ccccc34)C(=O)NC2=O)c2ccccc21`: 142 to 149 °C.
The same measure for `Cn1ncnc1COc1nc2c(cc1-c1ccsc1)nnn2-c1ccccc1F`: 133 to 135 °C; for `Cc1oc(-c2ccccc2)nc1CCOc1ccc(C=C2SC(=O)NC2=O)cn1`: 195 to 196 °C; for `CCOC(=O)c1cn2c3c(c(F)c(F)cc3c1=O)CCC2CCl` (centres undefined): 215 to 218 °C.
Compound `CC1(C2CCCC2)Cc2cc(OCC#N)c(Cl)c(Cl)c2C1=O` (centres undefined) returned a melting point of 129 to 131 °C.
As for `CCC(Oc1ccccc1Cl)C(=O)OC1CC(O)C=C2C=CC(C)C(CCC3CC(O)CC(=O)O3)C21` (mixture of isomers), the melting point is 145 to 147 °C.
Then `Cc1sc2cc(CC(=O)O)ccc2c1Br`, with 150 to 152 °C.
Then `CCCCCCn1cnc2cnc3ccccc3c21`, with 75 to 77 °C; and `COc1ccc(C2CC(=O)OC(=O)C2)cc1OC`, with 118 to 120 °C.
Then `COc1cc2c(cc1Nc1ncc(Cl)c(Nc3ccccc3S(=O)(=O)N3CCCC3)n1)CCN(CCO)CC2`, with 110 °C; and `CCOC(=O)c1ccccc1-n1c(=O)c2ccccc2n(CCCCBr)c1=O`, with 101 to 102 °C; and `CN1CCC(=C2c3ccccc3C=Cc3ccc(C(=O)OCn4ccnc4)cc32)CC1`, with 118 to 121 °C.
`COc1ccc2[nH]cc(CCN=c3sc4ccccc4s3)c2c1` came in with a melting point of 139 to 140 °C.
Compound `CC(C)(CO)COc1c(-c2ccc(S(C)(=O)=O)cc2)cnn(-c2ccc(F)c(F)c2)c1=O` registered a melting point of 161 to 162 °C.
The same measure for `C[Si](C)(C)c1cccs1`: 61 to 62 °C; for `O=C(O)c1ccc(NCCc2ccc(OCc3ccccc3)cc2)cc1`: 180 to 185 °C.
Then `O=C(Nc1ccc(-n2nc(C3CC3)cc2C2CC2)cc1)Nc1ccc2ncccc2c1`, with 102 to 104 °C; and `CCCn1nnn(-c2cc(OC(C)C)c(CBr)cc2Cl)c1=O`, with 68 to 70 °C; and `O=C(CNC(=O)OCc1ccccc1)ON1C(=O)CCC1=O`, with 110 to 112 °C.
`CC(C)(C)OC(=O)N1CCC(c2ccc(Nc3nc4c(-c5ccc(F)cc5)cccn4n3)cc2)CC1` had a melting point of 88 to 91 °C.
Then `O=[N+]([O-])c1ccc(F)c(Br)c1`, with 59 °C; and `Cc1cccc(NC(=O)NCC(=O)N(c2ccccc2)C(C(=O)OC(C)(C)C)C(=O)OC(C)(C)C)c1`, with 175 °C; and `Cc1cc(-c2noc(C(F)(F)F)n2)cc(C)c1OCCCc1ccc(CO)nc1`, with 92 to 94 °C.
The same measure for `CCOC(=O)C1=C(C)NC(c2csc(Cl)n2)=NC1c1ccc(F)cc1Cl` (centres undefined): 141 to 143 °C; for `CCOc1cc2cc3ncc(C#N)c(Nc4cc(OC)c(Cl)cc4C)c3cc2cc1OCCN1CCOCC1`: 195 to 196 °C; for `NS(=O)(=O)c1cc2[nH]c(Cc3ccccc3Cl)nc2cc1Cl`: 223 to 226 °C.
The same measure for `COc1ccsc1C(=O)C1C(=O)N(C(N)=O)c2ccc(Cl)cc21` (centres undefined): 86 to 88 °C; for `C[C@@H](n1cnc2cc(N3CCN(C)CC3)c(F)cc2c1=O)[C@](O)(Cn1cncn1)c1ccc(F)cc1F`: 106 to 112 °C.
In turn, `Cc1cccc(C2=C(c3ccc(S(C)(=O)=O)cc3)OC3(CCCCC3)C2=O)c1` had a melting point of 154 to 155 °C.
Then `CCOCC1(F)CCN(c2ccc(N3C[C@H](CNC(C)=O)OC3=O)cc2F)CC1`, with 109 to 111 °C; and `COc1ccc2c(c1)C(C(=O)O)CC2` (centres undefined), with 101 °C.
Then `COc1ccc(-c2ccc3c(C(=O)O)cccc3c2)cc1C12CC3CC(CC(C3)C1)C2`, with 222 °C; and `CCCCNC(=O)ON1C(C)(C)CC(OC(=O)C(CC)(CC)C(=O)OC2CC(C)(C)N(OC(=O)NCCCC)C(C)(C)C2)CC1(C)C`, with 166 to 169 °C.
`CC(CC(O)(C(=O)O)C(F)(F)F)c1ccccc1` (centres undefined): the melting point lay within 145 to 146 °C.
The same measure for `COc1[nH]c(C)c(SC(F)(Cl)Cl)c1C#N`: 175 °C; for `CC1(C)CC(C)(C)CC(C)(NC=O)C1`: 104 to 106 °C; for `COC(=O)Nc1cc(O)c(Cl)cc1F`: 140 to 141 °C.
`Clc1ccc(-c2cc(Cl)c3ccccc3n2)cc1Cl` yielded a melting point of 138 to 140 °C.
`COc1cc(C)c2c(c1OC)CCC1C(=O)NC(=O)C21` (centres undefined) gave a melting point of 179 to 181 °C.
For `CC(C)(N)CNC(=O)CNC(=O)CNC(=O)Cc1ccccc1`, the melting point was 209 to 210 °C.
Then `COCc1c[nH]c(-c2ccc(OCC(O)CO)cc2)n1` (centres undefined), with 154 to 156 °C; and `CC(=O)Oc1cccc(C(=O)O)c1C`, with 147 to 148 °C.
Then `Cc1ccc(Cn2[nH]c(N)cc2=O)cc1`, with 149 °C; and `COc1ccc(C(=O)Nc2ccccc2)c2c1oc1ccc(NC(C)=O)cc12`, with 252 °C; and `Cc1cc(-c2ccccc2)nc(-c2cccc([N+](=O)[O-])c2)c1C(=O)N1CCN(C)CC1`, with 127 to 129 °C.
The same measure for `CC(C)[C@H](NS(=O)(=O)c1ccc2c(Cl)cnc(Cl)c2c1)C(=O)OC(C)(C)C`: 127 to 129 °C.
In turn, `COC1(c2cccc(OCc3ccc4ccccc4c3)c2)CCN(CC#N)C1` (centres undefined) had a melting point of 76 to 77 °C.
Then `Cc1oc(-c2ccc(-c3ccccc3)cc2)nc1CCOc1ccc(OC(C)(C)C(=O)O)cc1`, with 123 to 124 °C.
The same measure for `C[C@]12CCC(=O)C=C1CC[C@@H]2c1cn[nH]n1`: 126 to 129 °C; for `Cn1cc(S(=O)(=O)Cl)c(=O)c2ccc(Cl)cc21`: greater than 300 °C.
Then `Nc1ccc2c(=O)n3c(nc2c1)C(=Cc1ccc(C(=O)O)cc1)CC3`, with 336 to 339 °C; and `Cn1nc(-c2ccc([N+](=O)[O-])o2)c2c(NO)ncnc21`, with 294 °C; and `COCCOC(=O)Cc1cccc(Nc2nccc(-c3sc(N)nc3C)n2)c1`, with 182 to 184 °C.
Regarding `Oc1ccc(C2(c3ccc(O)cc3)CCCCC2)cc1`, the melting point fell in the range of 181 to 182 °C.
Then `O=C(O)CN(C(=O)c1cccc(C(F)(F)F)c1S)C1CCCC1`, with 144 to 146 °C; and `CC(c1cc(Cl)ccc1N1CCCC1)C(C(N)=O)c1ccc(C(=O)O)cc1` (centres undefined), with 202 to 204 °C.
Then `Cc1c(Cc2ccc(C(C)C)cc2)c2c(c(C)c1NC(=O)CC(C)(C)C)CC(C)(CO)O2` (centres undefined), with 186 to 187 °C.

For the origin of these results see a melting point compilation (Tetko et al.; mined from patent text by program, amines drawn as free bases though some values may be those of a salt).
